Measurements as given in patent US6420563B1, “Small molecule modulators of G protein-coupled receptor six” (Arena Pharmaceuticals, Inc., priority 1998, dated 2002).
Like-named read-outs stand apart in the source and are kept apart here.

Assays:
GPR6 = molecular target: T1, GPR6 (Homo sapiens, UniProt P46095); assay: membrane-based cyclic AMP confirmation assay (Example 4C); assay type: biochemical; details: mean +/- standard deviation (number of assays in brackets); read-out: IC50 Values Cyclic AMP Assay Example 4C
T1 construct: expressed in transfected cells; 293 cells are used elsewhere
Description: Using an independent assay approach to provide confirmation of a directly identified candidate compound as set forth above, it is preferred that a confirmation assay then be utilized. In this case, the preferred confirmation assay is membrane-based cyclic AMP (cAMP) assay.
A modified Flash Plate™ Adenylyl Cyclase kit (New England Nuclear; Cat. No. SMP004A) was utilized for confirmation of candidate compounds directly identified as inverse agonists and agonists to endogenous, constitutively activated orphan GPCRs in accordance with the following protocol.
Transfected stable cells were harvested approximately three days after transfection. Membranes were prepared by homogenization of suspended cells in buffer containing 20 mM HEPES, pH 7.4 and 10 mM MgCl2. Homogenization was performed on ice using a Brinkman Polytron™ for approximately 10 seconds. The resulting homogenate was centrifuged at 20,000 rpm for 20 minutes at 4° C. The resulting pellet was then resuspended in buffer containing 20 mM HEPES, pH 7.4 and 0.1 mM EDTA, homogenized for 10 seconds, followed by centrifugation at 20,000 rpm for 20 minutes at 4° C. The resulting pellet can be stored at −80° C. until utilized. On the day of direct identification screening, the membrane pellet is slowly thawed at room temperature, resuspended in buffer containing 20 mM HEPES, pH 7.4, 100 mM NaCl and 10 mM MgCL2, to yield a final protein concentration of 0.60 mg/ml (the resuspended membranes are placed on ice until use).
Candidate compounds identified as per above (if frozen, thawed at room temperature) were added to plate wells (3 μl/well; 12 μM final assay concentration), together with 50 μl Membrane Protein (30 μg/well) and 50 μl of Assay Buffer. This admixture was then incubated for 30 minutes at room temperature, with gentle shaking.
Following the incubation, 100 μl of Detection Buffer was added to each well, followed by incubation for 2-20 hours. Plates were subsequently aspirated and then counted in a Wallac MicroBeta™ plate reader using “Prot. #31” (as per manufacturer instructions).

[1] = Food/water intake and body weight in 24-hour food deprived rats, oral gavage (PO); assay type: in vivo, rat
Protocol: Based upon the in vivo data developed, oral bioavailability of compound ARE112 was determined. The compound was administered by oral gavage at doses ranging from 6.75 to 54 mg/kg. The data presented in FIGS. 9A and 9B support the conclusion that oral administration of ARE112 also decreases food intake in both food-deprived and non-food deprived rats. […] In FIG. 9A, rats were deprived 24 hours prior to oral administration of the compound. In this assay, the vehicle-treated rats at 2.5 hours consumed […] of food while injected rats; particularly rats administered with 27 and 54 mg/kg of ARE 112, ate about 6 and 4 grams, respectively. […] (See, FIG. 9A).
Several other GPR6 inverse agonists were also assessed under 24-hour food deprived conditions, with PO administration. The analogs listed below were tested at 200 μmol/kg, which is equivalent to 54 mg/kg. In addition, ARE114 was also assessed at […]. Data are summarized below in Table C:
In a second assay, tested under the same conditions, several other analogs were assessed at 100 μmol/kg.
In FIG. 10, rats were deprived 24 hours prior to oral administration of the compound. In this assay, analogs ARE130, ARE135, ARE136, and ARE140, were administered at a dose of 100 μmol/kg. Three analogs, particularly, ARE130, ARE136 and ARE140 evidenced a slow intake of food (e.g., about 1 to 1.5 grams every two hours) over an eight hour period post-administration; while the vehicle rat consumed about 2 to 2.5 grams food every two hours. Similar to the vehicle rat, analog ARE135, an opened ring structure, evidenced that over an eight hour period post-administration the rats increasingly consumed about 2.5 grams every two hours. (See, FIG. 10A). Furthermore, the body weight of the vehicle rat and administered rats with analog ARE135 gained about 19.5 grams. On the other hand, the closed ring structures evidenced a decrease in body weight gain as follows: ARE112-6 grams, ARE130-9 grams, ARE136-11 grams and ARE140-14 grams. See, FIG. 10C.

GPR6:Gsα-Fusion Protein = molecular target: T2, GPR6:Gsα-Fusion Protein (Homo sapiens, UniProt P46095); assay: [35S]GTPγS membrane binding assay (Example 4A); assay type: biochemical
T2 construct: expressed in transfected cells
Protocol: The assay plates were then centrifuged at 400 rpm for 15 minutes at room temperature and then subsequently aspirated and counted in a scintillation counter.
Membranes expressing the GPCR6:Gsα-Fusion Protein (see Example 2) and for use in the direct identification of candidate compounds as inverse agonists, agonists or partial agonists were prepared as follows:
All materials were kept on ice throughout the procedure. Firstly, the media was aspirated from a confluent monolayer of cells, followed by rinse with 10 ml cold PBS, followed by aspiration. Thereafter, 5 ml of membrane Scrape Buffer was added to scrape cells; this was followed by transfer of cellular extract into 50 ml centrifuge tubes (centrifuged at 20,000 rpm for 17 minutes at 4° C.). Thereafter, the supernatant was aspirated and the pellet was resuspended in 30 ml Membrane Wash Buffer followed by centrifuge at 20,000 rpm for 17 minutes at 4° C. The supernatant was then aspirated and the pellet resuspended in Binding Buffer. This was then homogenized using a Brinkman polytron™ homogenizer (15-20 second bursts until the all material was in suspension). This is referred to herein as “Membrane Protein”.
Candidate compounds (Tripos, Inc., St. Louis, Mo.) were received in 96-well plates (these can be frozen at −80° C.). Membrane Protein (or membranes with expression vector excluding the GPR6:Gsα-Fusion Protein, as control), were homogenized briefly until in suspension. Protein concentration was then determined using the Bradford Protein Assay set forth above. […] Thereafter, 100 ul GDP Buffer was added to each well of a Wallac Scintistrip™ (Wallac). A 5 ul pin-tool was then used to transfer 5 ul of a candidate compound into such well (i.e., 5 ul in total assay volume of 200 ul is a 1:40 ratio such that the final screening concentration of the candidate compound is 10 uM). Again, to avoid contamination, after each transfer step the pin tool was rinsed in three reservoirs comprising water (1×), ethanol (1×) and water (2×)—excess liquid should be shaken from the tool after each rinse and dried with paper towels and kimwipes™. Thereafter, 50 ul of Membrane Protein was added to each well (a control well comprising membranes without the GPCR Fusion Protein is also utilized), and pre-incubated for 5-10 minutes at room temperature (the plates were covered with foil in that the candidate compounds obtained from Tripos are light sensitive). Thereafter, 50 ul of [^35S]GTPγS (0.6 nM) in Binding Buffer was added to each well, followed by incubation on a shaker for 60 minutes at room temperature (again, in this example, plates were covered with foil). The assay was then stopped by spinning of the plates at 4000 RPM for 15 minutes at 22° C. The plates were then aspirated with an 8 channel manifold and sealed with plastic plate covers. The plates were then read on a Wallac 1450 using setting “Prot. #37” (as per manufacturer instructions).
The initial or “primary” screen designed to directly identify, e.g., human GPR6 receptor inverse agonists, consisted of the membrane-based GTPγS binding assay of Example 4A utilizing membranes prepared from 293 stable cells. Candidate compounds directly identified as inhibiting receptor-mediated increases in GTPγS as set forth below were considered active “leads”.
It is preferred that following such direct identification, IC50 (inverse agonist) or EC50 (agonist) values be determined; those having ordinary skill in the art are credited with utilizing IC50 and EC50 assay protocols of choice. FIG. 4 provides a representative IC50 curve for compound ARE112 using the assay protocol of Example 4A.

[2] = 100 μmol/kg PO, second assay, Table D, vehicle 19.25

T2 sequence (P46095 with tags, fused parts or gaps): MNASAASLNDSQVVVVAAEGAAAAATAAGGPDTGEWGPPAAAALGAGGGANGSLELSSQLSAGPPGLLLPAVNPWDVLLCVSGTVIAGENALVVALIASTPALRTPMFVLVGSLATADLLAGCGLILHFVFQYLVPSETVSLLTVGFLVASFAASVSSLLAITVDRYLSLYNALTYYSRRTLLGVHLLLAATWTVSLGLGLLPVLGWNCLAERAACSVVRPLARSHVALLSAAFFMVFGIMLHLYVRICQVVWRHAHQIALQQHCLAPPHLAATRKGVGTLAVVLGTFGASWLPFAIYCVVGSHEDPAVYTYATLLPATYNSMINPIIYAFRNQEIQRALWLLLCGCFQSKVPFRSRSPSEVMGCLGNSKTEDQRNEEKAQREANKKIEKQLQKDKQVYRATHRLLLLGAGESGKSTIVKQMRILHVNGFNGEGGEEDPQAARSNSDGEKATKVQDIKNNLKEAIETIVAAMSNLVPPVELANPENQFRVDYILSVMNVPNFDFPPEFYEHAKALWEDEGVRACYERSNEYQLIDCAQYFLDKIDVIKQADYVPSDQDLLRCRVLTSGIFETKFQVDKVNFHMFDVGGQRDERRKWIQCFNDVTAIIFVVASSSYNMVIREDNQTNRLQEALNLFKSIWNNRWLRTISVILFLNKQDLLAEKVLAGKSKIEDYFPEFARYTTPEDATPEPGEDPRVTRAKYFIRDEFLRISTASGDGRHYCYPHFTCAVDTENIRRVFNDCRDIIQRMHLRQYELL
T1 sequence (P46095 whole entry): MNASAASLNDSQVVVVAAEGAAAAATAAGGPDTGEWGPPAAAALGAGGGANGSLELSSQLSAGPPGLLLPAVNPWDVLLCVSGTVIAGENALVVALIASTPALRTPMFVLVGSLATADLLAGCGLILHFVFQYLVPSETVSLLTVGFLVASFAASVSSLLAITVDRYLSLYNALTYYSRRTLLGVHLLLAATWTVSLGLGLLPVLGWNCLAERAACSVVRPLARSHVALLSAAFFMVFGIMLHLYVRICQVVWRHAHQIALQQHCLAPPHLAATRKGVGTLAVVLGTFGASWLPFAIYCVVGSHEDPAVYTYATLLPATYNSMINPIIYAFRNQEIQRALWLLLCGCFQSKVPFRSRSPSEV

O=C(NC(=S)N1CCNC1=S)c1ccc2ccccc2c1 [ARE135, N-(2-thioxo-imidazolidine-1-carbothioyl)-naphthyl-2-carboxamide]
IC50 (GPR6): 0.71 µM
Cumulative Food Intake (g) (8 hr post administration) ([1]; 100 μmol/kg PO, second assay, Table D, vehicle 14.0): 13.5 g
Body Weight Gain (g) (6 hr post administration) [1, 2]: 19.5 g
Cumulative Water Intake (g) (6 hr post administration) [1, 2]: 19.5 g
food intake every two hours ([1]; 100 μmol/kg oral, over eight hour period post-administration (FIG. 10A), vehicle about 2 to 2.5 grams): about 2.5 grams
water drunk (FIG. 10B) ([1]; 100 μmol/kg oral, comparable to vehicle): about 19 grams
body weight gain (FIG. 10C) ([1]; 100 μmol/kg oral, vehicle about 19.5 grams): about 19.5 grams
IC50 (GPR6:Gsα-Fusion Protein; mean +/- SD (number of assays), read-out: IC50 Values (Table E, GTP Assay of Example 4A)): 100 µM
IC50 (GPR6:Gsα-Fusion Protein; mean +/- standard deviation (number of assays in brackets), read-out: IC50 Values GTP Assay Example 4A): 100 µM
